Each structure is given as a SMILES string. Where a name gives a salt, the structure may show the parent alone.

The test concerns scopolamine induced memory impairment in Sprague Dawley rats. Put plainly: Scopolamine induced memory impairment model, Morris Water Maze. The test is classed as in vivo. The note with it: oral, 4 days; LN16026F3 100 mg/kg, Donepezil 10 mg/kg; vs Scopolamine group. On the procedure: Twenty four healthy male Sprague Dawley rats were randomized in to four groups. Animals of groups 1 and 2 were treated daily with vehicle (0.5% sodium CMC in water); group 3 with LN16026F3 (100 mg/kg) and group 4 with Donepezil Hydrochloride Monohydrate (10 mg/kg). Dementia was induced by injecting Scopolamine Hydrobromide (0.2 mg/kg) subcutaneously to G2, G3 & G4 groups. G1 group received only 1 mL/kg of normal saline (0.9% w/v sodium chloride) via subcutaneous route.
The experiment consists of 4 days of acquisition trials and one probe trial on day 5 i.e. the day after the completion of acquisition trails. Rats were allowed to swim for 120 seconds of 4 trials per day during acquisition trial in water maze to find the hidden platform. Each rat received 4 days of acquisition trials and one probe trial of 180 seconds on day 5. The movement of the animals was tracked by the SMART video tracking system. Memory retention was assessed on day 5 in which each animal received a single 180 seconds probe trial without platform in the pool. Dopamine levels were measured in tissue from hippocampal region of the brain using Elisa kit.

Turning to `COc1cc2c(cc1OC)C(=O)C(CC1CCN(Cc3ccccc3)CC1)C2` (stereo not shown) [Donepezil, Donepezil Hydrochloride Monohydrate], the “Target latency, Acquisition Trial” value is listed as “reduction in target latency”.

The record behind these values is patent US20190336555A1, “SYNERGISTIC DIETARY SUPPLEMENT COMPOSITIONS FOR IMPROVING BRAIN HEALTH” (LAILA NUTRACEUTICALS, priority 2016, published 2019).
